Data taken from patent US11787769B2 (priority 2019, dated 2023).
Where two headings read alike, the source gives them in different places.

What was measured:
[1] = Pharmacokinetic analysis of plasma and liver levels in BALB/c mice
[2] = target: CYP2C9 (Homo sapiens, UniProt P11712); assay: biochemical
[3] = tested on: influenza A virus (HA of H5N1, Goose/Qinghai/59/05); assay: microbe, parasite or virus in culture; type: cell-based; details: Influenza A virus
[4] = Hepatic metabolic stability in mouse liver microsomes; details: mouse LM, in the presence of NADPH
[5] = tested on: PR8-PB2-Gluc, influenza A/Puerto Rico/8/1934 (PR8) H1N1 virus; assay: microbe, parasite or virus in culture; type: cell-based; details: Influenza A virus, MDCK, read-out: EC50 (nM), antiviral activity in the infectious IAV
[6] = tested on: PR8-NS1-Gluc virus; assay: microbe, parasite or virus in culture; type: cell-based, influenza A PR8
[7] = Hepatic metabolic stability in human liver microsomes; details: human LM, in the presence of NADPH
[8] = target: CYP3A4 (Homo sapiens, UniProt P08684); assay: biochemical
CYP3A4, sequence (P08684 whole entry): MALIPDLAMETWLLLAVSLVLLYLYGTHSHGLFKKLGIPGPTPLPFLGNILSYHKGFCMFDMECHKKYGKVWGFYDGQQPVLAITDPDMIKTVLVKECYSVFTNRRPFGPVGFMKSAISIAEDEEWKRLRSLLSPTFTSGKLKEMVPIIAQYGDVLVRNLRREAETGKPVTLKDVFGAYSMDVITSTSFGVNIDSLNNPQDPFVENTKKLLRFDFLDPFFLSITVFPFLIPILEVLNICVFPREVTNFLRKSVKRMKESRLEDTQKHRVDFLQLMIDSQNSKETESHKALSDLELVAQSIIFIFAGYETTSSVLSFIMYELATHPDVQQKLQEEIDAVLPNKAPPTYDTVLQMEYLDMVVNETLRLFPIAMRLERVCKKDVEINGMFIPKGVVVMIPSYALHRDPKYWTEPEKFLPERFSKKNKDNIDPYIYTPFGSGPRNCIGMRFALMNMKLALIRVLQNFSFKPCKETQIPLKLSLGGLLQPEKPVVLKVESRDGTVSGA

[9] = Influenza A virus, PR8, MDCK, 48 h

CYP2C9, sequence (P11712 whole entry): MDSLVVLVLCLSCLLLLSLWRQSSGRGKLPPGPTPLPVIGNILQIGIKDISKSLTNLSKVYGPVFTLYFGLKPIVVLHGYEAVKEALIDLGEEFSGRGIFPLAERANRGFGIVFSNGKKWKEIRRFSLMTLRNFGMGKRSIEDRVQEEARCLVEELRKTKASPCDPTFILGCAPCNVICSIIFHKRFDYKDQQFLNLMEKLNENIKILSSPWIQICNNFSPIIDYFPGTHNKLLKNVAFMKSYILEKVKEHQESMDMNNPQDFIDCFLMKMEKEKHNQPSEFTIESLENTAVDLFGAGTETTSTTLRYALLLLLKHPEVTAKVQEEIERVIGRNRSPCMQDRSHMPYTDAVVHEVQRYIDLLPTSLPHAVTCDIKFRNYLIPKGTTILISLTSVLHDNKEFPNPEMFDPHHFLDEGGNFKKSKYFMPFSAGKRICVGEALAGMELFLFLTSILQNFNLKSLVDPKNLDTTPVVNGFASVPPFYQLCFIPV

CC(C)(C)N1CCC(NC(=O)c2ccc(C(F)(F)F)cc2Cl)CC1 [Compound 16, N-(1-(tert-Butyl)piperidin-4-yl)-2-chloro-4-(trifluoromethyl)benzamide]
Cmax ([1]; 5x the dose p.o. (50 mg/kg), plasma): 7641 ng/mL
Cmax p.o. relative to i.p. (fold higher) ([1]; 5x the dose p.o. vs 10 mg/kg i.p., plasma): 7 ×
oral bioavailability ([1]; BALB/c mice, p.o. vs i.p. Cmax): excellent oral bioavailability
Tmax ([1]; BALB/c, mouse, plasma, intraperitoneal, oral): 30 min
AUC(0-8 h) ([1]; i.p. (10 mg/kg), liver): 66400 ng·h/g
T1/2 ([1]; i.p. (10 mg/kg), liver): 148 min
Tmax ([1]; i.p. (10 mg/kg), liver): 15 min
AUC(0-8 h) ([1]; i.p. (10 mg/kg), plasma): 3282 ng·h/g
T1/2 ([1]; i.p. (10 mg/kg), plasma): 91.8 min
Tmax ([1]; i.p. (10 mg/kg), plasma): 30 min
AUC(0-8 h) ([1]; p.o. (50 mg/kg), liver): 292000 ng·h/g
T1/2 ([1]; p.o. (50 mg/kg), liver): 155 min
Tmax ([1]; p.o. (50 mg/kg), liver): 60 min
AUC(0-8 h) ([1]; p.o. (50 mg/kg), plasma): 23705 ng·h/g
T1/2 ([1]; p.o. (50 mg/kg), plasma): 130 min
Tmax ([1]; p.o. (50 mg/kg), plasma): 30 min
Cmax ([1]; read-out: Cmax level in the plasma, 10 mg/kg i.p.): 3.12 µM
IC50 [2]: > 100000 nM
inhibition at 12.5 µM ([3]; H5N1, A549, 12.5 μM, read-out: H5N1 pseudotype assay % inhibition at 12.5 μM): 99%
EC50 ([3]; H5N1, A549, read-out: H5N1 pseudotype assay EC50 (μM)): 0.24 ± 0.09 µM
percentage of compound remaining after 60 minutes [4]: 94%
EC50 [5]: 72 nM
EC30 [6]: 134 nM
EC40 [6]: 160 nM
EC60 [6]: 219 nM
EC70 [6]: 260 nM
EC80 [6]: 321 nM
EC50 [6, 9]: 187 nM
EC90 [6, 9]: 439 nM
percentage of compound remaining after 60 minutes [7]: 97%
IC50 [8]: > 100000 nM
